The structures appear in SMILES notation.

As a reminder, the IC50 is the concentration needed to halve the response being measured.

In one test the target is T1, PDK1 (Homo sapiens, UniProt O15530).
T1 construct: endogenous in cells; host or cells: commercially available colon carcinoma, ovary, prostate or breast cell lines (none named)
T1 sequence (O15530 1-556): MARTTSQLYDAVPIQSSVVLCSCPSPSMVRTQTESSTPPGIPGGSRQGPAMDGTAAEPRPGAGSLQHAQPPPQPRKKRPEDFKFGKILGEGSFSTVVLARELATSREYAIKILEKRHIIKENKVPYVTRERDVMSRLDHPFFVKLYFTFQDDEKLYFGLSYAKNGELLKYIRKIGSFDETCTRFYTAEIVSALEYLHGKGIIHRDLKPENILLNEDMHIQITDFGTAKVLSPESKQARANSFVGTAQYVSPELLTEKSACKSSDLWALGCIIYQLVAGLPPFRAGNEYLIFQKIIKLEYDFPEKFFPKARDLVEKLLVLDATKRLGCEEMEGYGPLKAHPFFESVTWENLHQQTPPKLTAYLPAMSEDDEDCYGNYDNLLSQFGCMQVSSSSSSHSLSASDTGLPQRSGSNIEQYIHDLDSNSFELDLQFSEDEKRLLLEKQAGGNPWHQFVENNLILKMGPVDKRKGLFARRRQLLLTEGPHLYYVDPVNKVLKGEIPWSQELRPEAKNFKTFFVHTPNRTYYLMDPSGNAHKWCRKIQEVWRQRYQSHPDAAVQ
Put plainly: IC50 PDK1 (cell). The class given is cell-based. Here is the method:
The cells are sown in a suitable cell density in microtitre plates (96-well format) and the test substances are added in the form of a concentration series. After four further days of cultivation in serum-containing medium, the tumour cell proliferation/tumour cell vitality can be determined by means of an Alamar Blue test system. A defined number of cells (for example 2000 cells) per culture/well in a volume of 180 μl of culture medium are sown in microtitre plates (96 well cell-culture plates) using a multichannel pipette. The cells are subsequently cultivated in a CO2 incubator (37° C. and 10% CO2). The test substances are dissolved, for example, in DMSO and subsequently employed in corresponding concentration (if desired in a dilution series) in the cell culture medium. The dilution steps can be adapted depending on the efficiency of the active ingredients and the desired spread of the concentrations. Cell culture medium is added to the test substances in corresponding concentrations. The addition of the test substances to the cells can take place on the same day as the sowing of the cells. To this end, in each case 20 μl of substance solution from the predilution plate are added to the cultures/wells. The cells are cultivated for a further 4 days at 37° Celsius and 10% CO2. In each case, 20 μl of Alamar Blue reagent are added per well, and the microtitre plates are incubated, for example, for a further seven hours in a CO2 incubator (at 37° C. and 10% CO2). The plates are measured in a reader with a fluorescence filter at a wavelength of 540 nm. The plates can be shaken gently immediately before the measurement. The absorbance value of the medium control (no cells and test substances used) is subtracted from all other absorbance values. The controls (cells without test substance) are set equal to 100 percent, and all other absorbance values are set in relation thereto (for example in % of control): Calculation: 100*(value with cells and test substance−value of medium control)/(value with cells−value of medium control) IC50 values (50% inhibition) are determined with the aid of statistics programs, such as, for example, RS1.

The next test has as its target T2, IRAK-1 (Homo sapiens, UniProt P51617).
T2 construct: His6 (N); Dr.Jaekel Pool B, 232Y08C1.IRK
As to the kind of experiment: Test for the inhibition of IRAK1 (autophosphorylation, flashplate). It counts as biochemical. Conditions: enzyme. Summed up: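 His6-IRAK1 (5.1 nM) autophosphorylation with 1 μM ATP plus ^33P-ATP, 180 min at 22° C, read as incorporated radioactivity. Blank with 1 μM staurosporin was subtracted and activity expressed as % of no-compound control. IC50 derived from the dilution series.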

The next test has as its target T3, IRAK-4 (Homo sapiens, UniProt Q9NWZ3).
T3 construct: His6 (N); Dr.Jaekel
T3 sequence (Q9NWZ3 1-460): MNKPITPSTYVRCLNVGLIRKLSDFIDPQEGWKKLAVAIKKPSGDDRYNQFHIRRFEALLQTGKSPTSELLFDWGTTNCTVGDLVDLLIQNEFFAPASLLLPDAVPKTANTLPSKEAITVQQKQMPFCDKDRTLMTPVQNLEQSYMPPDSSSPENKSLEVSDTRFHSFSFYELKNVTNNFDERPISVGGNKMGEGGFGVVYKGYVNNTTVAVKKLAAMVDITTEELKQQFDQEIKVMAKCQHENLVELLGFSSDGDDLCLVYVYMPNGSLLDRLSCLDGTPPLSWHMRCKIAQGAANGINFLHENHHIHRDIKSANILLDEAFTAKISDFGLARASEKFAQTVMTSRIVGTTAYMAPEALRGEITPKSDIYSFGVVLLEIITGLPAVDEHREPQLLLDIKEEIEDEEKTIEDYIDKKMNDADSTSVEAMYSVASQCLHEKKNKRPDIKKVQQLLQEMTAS
As to the kind of experiment: Test for the inhibition of IRAK4 (flashplate, 33P-ATP). The note with it: enzyme. It counts as biochemical. Summed up:
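His6-IRAK4 (7.3 nM) with biotinylated STK substrate 1 peptide (300 nM) and 10 μM ATP spiked with ^33P-ATP, incubated 180 min at 22° C. Incorporated radioactivity counted; blank from 1 μM staurosporine subtracted, activity expressed as % of no-compound control, IC50 by statistical fit.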

T2 sequence (P51617 whole entry, species assumed): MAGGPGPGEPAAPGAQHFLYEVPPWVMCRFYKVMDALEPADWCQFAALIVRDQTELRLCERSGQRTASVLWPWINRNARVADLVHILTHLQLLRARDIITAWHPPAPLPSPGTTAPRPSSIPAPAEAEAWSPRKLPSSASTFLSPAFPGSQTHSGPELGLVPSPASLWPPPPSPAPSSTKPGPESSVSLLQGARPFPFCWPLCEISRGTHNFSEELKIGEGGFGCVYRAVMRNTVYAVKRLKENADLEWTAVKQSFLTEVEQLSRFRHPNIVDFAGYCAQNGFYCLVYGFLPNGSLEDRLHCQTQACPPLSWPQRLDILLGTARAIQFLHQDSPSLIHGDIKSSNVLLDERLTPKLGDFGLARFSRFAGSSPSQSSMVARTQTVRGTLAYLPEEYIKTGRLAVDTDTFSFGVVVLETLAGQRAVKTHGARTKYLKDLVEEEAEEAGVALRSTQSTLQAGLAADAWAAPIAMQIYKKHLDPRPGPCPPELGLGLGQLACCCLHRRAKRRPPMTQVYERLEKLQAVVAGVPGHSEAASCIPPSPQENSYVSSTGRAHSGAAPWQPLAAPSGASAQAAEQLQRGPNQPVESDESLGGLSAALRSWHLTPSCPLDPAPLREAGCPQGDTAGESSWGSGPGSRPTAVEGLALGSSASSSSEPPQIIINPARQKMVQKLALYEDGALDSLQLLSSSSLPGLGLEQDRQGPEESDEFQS

In the case of `CC1CC(=O)NN=C1c1ccc2nc(-c3cc(-c4cnn(C)c4)cnc3N)[nH]c2c1` (racemic) [Compound A1, 6-{2-[2-amino-5-(1-methyl-1H-pyrazol-4-yl)pyridin-3-yl]-3H-benzimidazol-5-yl}-5-methyl-4,5-dihydro-2H-pyridazin-3-one], the IC50 at PDK1 was 100 to 10000 nM; on IRAK-1, 100 to 10000 nM; on IRAK-4 it was greater than 10000 nM.
As to `COc1ccc2nc(-c3cc(-c4cnn(C)c4)cnc3N)[nH]c2c1` [Compound A43], the values for the concentration for half-maximal inhibition (IC50) at PDK1, at IRAK-1 and against IRAK-4 were greater than 10000 nM, 100 to 10000 nM and 100 to 10000 nM, respectively.
Take `Cn1cc(-c2cnc(N)c(-c3nc4cccc(CO)c4[nH]3)c2)cn1` [Compound A52]: the concentration for half-maximal inhibition (IC50) against PDK1, on IRAK-1 and on IRAK-4 was 100 to 10000 nM in each case.
Consider `COc1ccc2nc(-c3cc(-c4cnn(C5CCNCC5)c4)cnc3N)[nH]c2c1` [Compound A92, 3-(6-Methoxy-1H-benzimidazol-2-yl)-5-(1-piperidin-4-yl-1H-pyrazol-4-yl)pyridin-2-ylamine], for which the values for the half-maximal inhibitory concentration (IC50) against PDK1, on IRAK-1 and on IRAK-4 were greater than 10000 nM, 1 to 100 nM and 1 to 100 nM, respectively.
For the compound `Cn1cc(-c2cnc(N)c(-c3nc4ccc(C(=O)NCCc5ccc(F)c(F)c5)cc4[nH]3)c2)cn1` [Compound A128, N-[2-(3,4-difluorophenyl)ethyl]-2-[2-amino-5-(1-methyl-1H-pyrazol-4-yl)pyridin-3-yl]-3H-benzimidazole-5-carboxamide], the values for the IC50 on PDK1, on IRAK-1 and against IRAK-4 were greater than 10000 nM, 100 to 10000 nM and 100 to 10000 nM, respectively.
With `COc1ccc2nc(-c3cc(-c4ccc(C(=O)NC5CCN(C)CC5)s4)cnc3N)[nH]c2c1` [Compound A133, N-(1-Methylpiperidin-4-yl)-5-[6-amino-5-(6-methoxy-1H-benzimidazol-2-yl)pyridin-3-yl]thiophene-2-carboxamide], the IC50 was greater than 10000 nM on PDK1, 1 to 100 nM at IRAK-1 and 1 to 100 nM at IRAK-4.
As for `COc1ccc2nc(-c3cc(-c4ccsc4)cnc3N)[nH]c2c1` [Compound A144, 3-(6-methoxy-1H-benzimidazol-2-yl)-5-thiophen-3-ylpyridin-2-ylamine], the IC50 is greater than 10000 nM at PDK1, 100 to 10000 nM against IRAK-1 and 100 to 10000 nM against IRAK-4.

These data come from US8648201B2, “Aminopyridine derivatives for treating tumors and inflammatory diseases” (MERCK PATENT GmbH, priority 2009, dated 2014).
